T1: G-CSF receptor (Mus musculus, UniProt P40223)
T1 construct: they express endogenous G-CSF receptors; endogenous in cells; host or cells: NFS60 murine myeloid cells carrying a G-CSF-responsive luciferase reporter
T1 sequence (P40223 26-837): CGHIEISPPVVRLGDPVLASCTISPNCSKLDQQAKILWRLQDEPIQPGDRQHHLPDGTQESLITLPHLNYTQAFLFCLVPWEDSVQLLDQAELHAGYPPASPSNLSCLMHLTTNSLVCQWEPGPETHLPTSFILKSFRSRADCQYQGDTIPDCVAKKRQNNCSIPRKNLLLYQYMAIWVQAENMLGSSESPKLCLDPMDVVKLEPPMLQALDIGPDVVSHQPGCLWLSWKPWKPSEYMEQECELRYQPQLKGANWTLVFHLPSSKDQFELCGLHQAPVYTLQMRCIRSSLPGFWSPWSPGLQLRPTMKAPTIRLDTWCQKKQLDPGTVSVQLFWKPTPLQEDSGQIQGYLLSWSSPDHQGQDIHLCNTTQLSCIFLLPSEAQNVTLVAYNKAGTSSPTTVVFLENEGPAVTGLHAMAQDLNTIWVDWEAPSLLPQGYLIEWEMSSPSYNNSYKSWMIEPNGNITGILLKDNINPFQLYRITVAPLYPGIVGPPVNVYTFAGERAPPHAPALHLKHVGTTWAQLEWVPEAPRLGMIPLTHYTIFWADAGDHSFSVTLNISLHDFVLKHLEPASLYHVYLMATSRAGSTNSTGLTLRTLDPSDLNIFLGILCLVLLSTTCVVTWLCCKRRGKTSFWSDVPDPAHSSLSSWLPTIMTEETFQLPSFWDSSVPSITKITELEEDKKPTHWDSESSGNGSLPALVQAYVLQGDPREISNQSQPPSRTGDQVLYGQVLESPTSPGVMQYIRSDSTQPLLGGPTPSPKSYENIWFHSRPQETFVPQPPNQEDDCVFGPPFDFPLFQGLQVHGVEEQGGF

T2: G-CSF/Fc fusion protein (Mus musculus, UniProt P40223)
T2 construct: which contained the extracellular domain of the receptor presented in a dimeric form due to the Fc component
T2 sequence (P40223 26-626 limits assumed): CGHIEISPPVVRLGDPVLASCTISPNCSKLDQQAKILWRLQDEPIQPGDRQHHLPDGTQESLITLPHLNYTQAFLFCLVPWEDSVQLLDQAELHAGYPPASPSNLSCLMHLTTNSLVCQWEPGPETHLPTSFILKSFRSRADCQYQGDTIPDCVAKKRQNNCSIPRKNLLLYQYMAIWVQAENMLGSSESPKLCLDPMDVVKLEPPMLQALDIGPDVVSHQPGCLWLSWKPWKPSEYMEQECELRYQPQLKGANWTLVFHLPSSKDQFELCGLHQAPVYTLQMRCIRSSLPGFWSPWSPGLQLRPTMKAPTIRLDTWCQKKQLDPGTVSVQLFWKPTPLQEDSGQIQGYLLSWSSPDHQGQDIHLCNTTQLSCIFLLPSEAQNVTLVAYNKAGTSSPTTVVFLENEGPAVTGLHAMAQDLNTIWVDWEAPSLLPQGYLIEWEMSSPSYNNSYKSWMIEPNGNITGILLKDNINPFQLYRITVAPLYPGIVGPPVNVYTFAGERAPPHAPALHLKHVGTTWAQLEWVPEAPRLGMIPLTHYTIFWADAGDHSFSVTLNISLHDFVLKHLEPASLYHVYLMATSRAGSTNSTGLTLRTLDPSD


Tests used:
G-CSF receptor = target: T1, G-CSF receptor; assay: Luciferase assay in the presence of EDTA (NFS60 cells); assay type: cell-based, murine
Method: FIG. 3 is an analysis of the effect of ethylenediaminetetraacetic acid (as used herein—EDTA) on the activity of Compound 1a (from Example 1) in NFS60 cells. Shown are luciferase response curves of Compound 1a at the indicated concentrations and in the presence of various concentrations of EDTA. […] The media in this assay contained a small amount (1-5 μM) of zinc(II).
FIGS. 7 and 8 show an analysis of the effect of metal chlorides on the EDTA depleted activity of Compound 1a on NFS60 cells. Shown are luciferase response curves as effected by the indicated metal chlorides. […] None of the other metals tested could overcome the inhibitory effect of EDTA.
In order to determine the requisiteness of zinc chelation of small organic molecules to agonist activity at dimeric cell-surface receptors, the above luciferase assay was performed on the G-CSF receptor in the presence of EDTA. EDTA is a strong metal chelator and had as its only effect, the removal of zinc from the ligand-receptor interaction.

G-CSF/Fc fusion protein = target: T2, G-CSF/Fc fusion protein; assay: Isothermal titration microcalorimetry; assay type: binding; details: only in the presence of zinc
Method: Zinc-mediated affinity of compounds from this invention for dimeric cell-surface receptors (specifically the G-CSF receptor) was measured by isothermal titration microcalorimetry experiments. Titration microcalorimetry detects binding as heat originating from the intrinsic bond forming enthalpy change. In this assay, the compounds were titrated first against zinc(II) alone. In a separate experiment, the compounds were then assayed in the presence of zinc and a dimeric cell-surface receptor/Fc fusion protein (a G-CSF/Fc fusion protein), which contained the extracellular domain of the receptor presented in a dimeric form due to the Fc component.

effect of EDTA on luciferase activity (G-CSF receptor; EDTA at 1.2 millimolar, media contained 1-5 μM zinc(II)) | agonist activity in the presence of EDTA (G-CSF receptor; FIG. 3) | affinity for the fusion protein construct (G-CSF/Fc fusion protein) | effect of EDTA on luciferase activity (G-CSF receptor; EDTA at both 1.2 and 5 millimolar) | Molecule | effect of metal chlorides on the EDTA depleted luciferase activity (G-CSF receptor; 50 micromolar EDTA, metal chlorides (zinc, manganese, iron, copper, cobalt))
antagonized | abrogated | high, submicromolar affinity |  | c1ccc(C23NC(=Nc4nc5ccccc5[nH]4)NC2(c2ccccn2)NC(=Nc2nc4ccccc4[nH]2)N3)nc1 (stereo not drawn) [Compound 1a, 2,5-Bis[2-benzimidazolylimino]-3a,6a-bis(2-pyridyl)-1,2,3,3a,4,5,6,6a-octahydroimidazo[4,5-d]imidazole] | Only zinc (II) at concentrations 0.5-10 micromolar can overcome the inhibition
 |  | high, submicromolar affinity |  | Cc1ccc2nc(N=C3NC4(c5ccccn5)NC(=Nc5nc6ccccc6[nH]5)NC4(c4ccccn4)N3)[nH]c2c1.O=C(O)C(F)(F)F.O=C(O)C(F)(F)F (stereo not drawn) [Compound 3a, 5-(2-benzimidazolylimino)-2-[(5-methyl-2-benzimidazolyl)imino]-3a,6a-bis(2-pyridyl)-1,2,3,3a,4,5,6,6a-octahydroimidazo[4,5-d]imidazole bis(trifluoroacetate) salt] | 
 |  |  | little effect | recombinant G-CSF: the natural ligand (i.e. G-CSF or recombinant G-CSF) (protein, UniProt P09919 31-207, looked up) Granulocyte …: TPLGPASSLPQSFLLKCLEQVRKIQGDGAALQEKLVSECATYKLCHPEELVLLGHSLGIPWAPLSSCPSQALQLAGCLSQLHSGLFLYQGLLQALEGISPELGPTLDTLQLDVADFATTIWQQMEELGMAPALQPTQGAMPAFASAFQRRAGGVLVASHLQSFLEVSYRVLRHLAQP | 
